# Experimental data from ChEMBL document CHEMBL4308846, “How Selective Are Pharmacological Inhibitors of Cell-Cycle-Regulating Cyclin-Dependent Kinases?” (J Med Chem, 2018).
# Activity calls are given as the source filed them. The calls are words filed in the database; no cut-off is given here.
# What was measured:
# HCT-116 [1] = assay: Induction of cell cycle arrest in human HCT116 cells assessed as reduction in accumulation at G1 phase 1.25 to 20 uM after 24 hrs by propidium iodide-staining based flow cytometry; type: functional
# CDK7/Cyclin H/MNAT1 = CDK7/Cyclin H/MNAT1 (Homo sapiens, UniProt P50613); assay: biochemical
# HCT-116 [2] = assay: Induction of cell cycle arrest in human HCT116 cells assessed as accumulation at G2/M phase 1.25 to 20 uM after 24 hrs by propidium iodide-staining based flow cytometry relative to control; type: functional
# [3] = molecular target: Cyclin-dependent kinase 4/cyclin D1 (Homo sapiens, UniProt P11802); assay: biochemical
# CDK9/cyclin T1 = CDK9/cyclin T1 (Homo sapiens, UniProt P50750); assay: biochemical
# [4] = molecular target: Cyclin-dependent kinase 1/cyclin B1 (Homo sapiens, UniProt P06493); assay: biochemical
# [5] = molecular target: Cyclin-dependent kinase 5/CDK5 activator 1 (Homo sapiens, UniProt Q00535); assay: biochemical
# CDK2/Cyclin A2 = CDK2/Cyclin A2 (Homo sapiens, UniProt P24941)
# [6] = molecular target: T1, N-lysine methyltransferase KMT5A (Homo sapiens, UniProt Q9NQR1); assay: Inhibition of SETD8 (unknown origin)
# T1 sequence (Q9NQR1 whole entry): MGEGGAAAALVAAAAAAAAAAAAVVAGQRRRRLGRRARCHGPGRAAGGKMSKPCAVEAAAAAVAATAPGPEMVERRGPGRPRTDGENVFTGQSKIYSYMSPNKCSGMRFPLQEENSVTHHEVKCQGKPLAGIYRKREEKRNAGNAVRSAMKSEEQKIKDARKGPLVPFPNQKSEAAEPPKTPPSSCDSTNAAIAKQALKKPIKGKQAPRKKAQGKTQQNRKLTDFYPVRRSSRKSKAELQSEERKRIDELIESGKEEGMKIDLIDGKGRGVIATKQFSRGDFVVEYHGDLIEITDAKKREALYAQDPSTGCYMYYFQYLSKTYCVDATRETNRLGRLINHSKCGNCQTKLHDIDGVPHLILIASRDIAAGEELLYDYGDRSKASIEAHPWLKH
# HCT-116 [7] = assay: Induction of cell cycle arrest in human HCT116 cells assessed as accumulation at S phase at 2.6 to 29.6 uM after 24 hrs by propidium iodide-staining based flow cytometry; type: functional
# [8] = molecular target: Cyclin-dependent kinase 2/cyclin E1 (Homo sapiens, UniProt P24941); assay: biochemical
# HCT-116 [9] = assay: Induction of cell cycle arrest in human HCT116 cells assessed as accumulation at G2/M phase 2.6 to 29.6 uM after 24 hrs by propidium iodide-staining based flow cytometry relative to control; type: functional
# HCT-116 [10] = assay: Induction of cell cycle arrest in human HCT116 cells assessed as reduction in accumulation at G1 phase 2.6 to 29.6 uM after 24 hrs by propidium iodide-staining based flow cytometry; type: functional
# [11] = molecular target: Cyclin-dependent kinase 1 (Homo sapiens) (UniProt P06493); assay: Inhibition of CDK1 (unknown origin) at 10 uM
# Aurora kinase B [12] = molecular target: T2, Aurora kinase B (Homo sapiens, UniProt Q96GD4); assay: biochemical
# HCT-116 [13] = assay: Induction of cell cycle arrest in human HCT116 cells assessed as accumulation at 8N stage at 1.25 to 5 uM after 24 hrs by propidium iodide-staining based flow cytometry; type: functional
# Homo sapiens [14] = species: Homo sapiens; assay: Selectivity index, ratio of IC50 for inhibition of His-tagged CDK1/cyclin B1 (unknown origin) expressed in Baculovirus infected Sf9 cells to IC50 for inhibition of GST-tagged AURORA B (unknown origin) expressed in baculovirus infected Sf9 cells
# Aurora kinase A = molecular target: T3, Aurora kinase A (Homo sapiens, UniProt O14965); assay: Inhibition of GST-tagged AURORA A (unknown origin) expressed in baculovirus infected Sf9 cells using MBP as substrate
# T3 sequence (O14965 whole entry): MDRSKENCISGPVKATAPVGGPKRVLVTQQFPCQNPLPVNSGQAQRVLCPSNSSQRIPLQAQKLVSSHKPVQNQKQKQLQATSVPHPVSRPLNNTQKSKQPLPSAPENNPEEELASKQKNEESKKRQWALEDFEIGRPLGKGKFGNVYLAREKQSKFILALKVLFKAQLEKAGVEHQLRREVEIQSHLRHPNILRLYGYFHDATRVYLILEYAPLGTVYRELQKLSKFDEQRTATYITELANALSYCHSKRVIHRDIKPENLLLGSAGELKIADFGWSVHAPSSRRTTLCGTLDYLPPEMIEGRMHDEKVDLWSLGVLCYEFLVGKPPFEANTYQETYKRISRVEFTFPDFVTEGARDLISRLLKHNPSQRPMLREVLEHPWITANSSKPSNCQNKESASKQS
# HCT-116 [15] = assay: Induction of cell cycle arrest in human HCT116 cells assessed as accumulation at G2/M phase after 24 hrs by propidium iodide-staining based flow cytometry; type: functional
# Homo sapiens [16] = species: Homo sapiens; assay: Selectivity index, ratio of IC50 for inhibition of His-tagged CDK1/cyclin B1 (unknown origin) expressed in Baculovirus infected Sf9 cells to IC50 for inhibition of GST-tagged AURORA A (unknown origin) expressed in baculovirus infected Sf9 cells
# Aurora kinase B [17] = molecular target: T2, Aurora kinase B; assay: Inhibition of AURORA B in human HCT116 cells assessed as reduction in histone H3 phosphorylation at S10 residues after 24 hrs by Western blot analysis; type: cell-based
# [18] = molecular target: Cyclin-dependent kinase 2 (Homo sapiens, UniProt P24941)
# HCT-116 [19] = assay: Induction of cell cycle arrest in CDK2 knocked out human HCT116 cells assessed as accumulation at G2/M phase at 100 to 500 nM after 24 hrs by propidium iodide-staining based flow cytometry; type: functional
# [20] = molecular target: Cyclin-dependent kinase 9 (Homo sapiens) (UniProt P50750); assay: Inhibition of CDK9 in human HCT116 cells assessed as induction of dephosphorylation of RNA polymerase 2 S2/S5 residues at 250 to 500 nM after 24 hrs by Western blot analysis; type: cell-based
# [21] = molecular target: T4, Cyclin-dependent kinase 5/CDK5 activator 1 (Homo sapiens) (UniProt Q00535+Q15078); assay: Inhibition of CDK5/p25 in human HCT116 cells assessed as induction of dephosphorylation of FAK at Ser732 residue at 250 to 500 nM after 24 hrs by Western blot analysis; type: cell-based
# [22] = molecular target: Cyclin-dependent kinase 7 (Homo sapiens) (UniProt P50613); assay: Inhibition of CDK7 in human HCT116 cells assessed as induction of dephosphorylation of RNA polymerase 2 S2/S5 residues at 250 to 500 nM after 24 hrs by Western blot analysis; type: cell-based
# HCT-116 [23] = assay: Induction of cell cycle arrest in human HCT116 cells assessed as accumulation at G2/M phase at 0.05 to 0.5 uM after 24 hrs by propidium iodide-staining based flow cytometry relative to control; type: functional
# HCT-116 [24] = assay: Induction of cell cycle arrest in human HCT116 cells assessed as accumulation at G1 phase at 0.03 to 0.8 uM after 24 hrs by propidium iodide-staining based flow cytometry; type: functional
# HCT-116 [25] = assay: Induction of cell cycle arrest in human HCT116 cells assessed as accumulation at G2/M phase at 0.03 to 0.8 uM after 24 hrs by propidium iodide-staining based flow cytometry; type: functional
# [26] = molecular target: T4, Cyclin-dependent kinase 5/CDK5 activator 1 (Homo sapiens); assay: Inhibition of CDK5/p25 in human HCT116 cells assessed as induction of dephosphorylation of FAK at Ser732 residue at 1 to 5 uM after 24 hrs by Western blot analysis; type: cell-based
# HCT-116 [27] = assay: Induction of cell cycle arrest in human HCT116 cells assessed as accumulation at G2/M phase at 0.2 to 13.2 uM after 24 hrs by propidium iodide-staining based flow cytometry relative to control; type: functional
# HCT-116 [28] = assay: Induction of cell cycle arrest in CDK2 knocked out human HCT116 cells assessed as accumulation at G2/M phase at 0.8 to 5.9 after 24 hrs by propidium iodide-staining based flow cytometry; type: functional
# HCT-116 [29] = assay: Induction of cell cycle arrest in human HCT116 cells assessed as accumulation at G2/M phase at 5.9 to […] after 24 hrs by propidium iodide-staining based flow cytometry; type: functional
# [30] = molecular target: Cyclin-dependent kinase 9 (Homo sapiens) (UniProt P50750); assay: Inhibition of CDK9 in human HCT116 cells assessed as induction of dephosphorylation of RNA polymerase 2 S2/S5 residues at 0.5 to 1 uM after 24 hrs by Western blot analysis; type: cell-based
# [31] = molecular target: Cyclin-dependent kinase 7 (Homo sapiens) (UniProt P50613); assay: Inhibition of CDK7 in human HCT116 cells assessed as induction of dephosphorylation of RNA polymerase 2 S2/S5 residues at 0.5 to 1 uM after 24 hrs by Western blot analysis; type: cell-based
# HCT-116 [32] = assay: Induction of cell cycle arrest in CDK2 knocked out human HCT116 cells assessed as accumulation at G2/M phase at 0.5 to 3.9 after 24 hrs by propidium iodide-staining based flow cytometry; type: functional
# [33] = molecular target: T4, Cyclin-dependent kinase 5/CDK5 activator 1 (Homo sapiens); assay: Inhibition of CDK5/p25 in human HCT116 cells assessed as induction of dephosphorylation of FAK at Ser732 residue at 0.5 to 1 uM after 24 hrs by Western blot analysis; type: cell-based
# HCT-116 [34] = assay: Induction of cell cycle arrest in human HCT116 cells assessed as accumulation at G2/M phase at 0.07 to 0.8 uM after 24 hrs by propidium iodide-staining based flow cytometry relative to control; type: functional
# T4 sequence (Q00535 whole entry): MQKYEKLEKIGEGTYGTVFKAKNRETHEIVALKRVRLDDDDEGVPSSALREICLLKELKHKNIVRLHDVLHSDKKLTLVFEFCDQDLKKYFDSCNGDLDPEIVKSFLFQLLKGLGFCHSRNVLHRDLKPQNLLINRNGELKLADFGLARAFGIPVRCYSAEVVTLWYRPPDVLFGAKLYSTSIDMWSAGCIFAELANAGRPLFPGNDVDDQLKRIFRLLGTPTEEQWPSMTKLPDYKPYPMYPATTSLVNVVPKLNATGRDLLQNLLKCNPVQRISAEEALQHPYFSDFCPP
# T4 sequence (Q15078 99-307 partner limits assumed): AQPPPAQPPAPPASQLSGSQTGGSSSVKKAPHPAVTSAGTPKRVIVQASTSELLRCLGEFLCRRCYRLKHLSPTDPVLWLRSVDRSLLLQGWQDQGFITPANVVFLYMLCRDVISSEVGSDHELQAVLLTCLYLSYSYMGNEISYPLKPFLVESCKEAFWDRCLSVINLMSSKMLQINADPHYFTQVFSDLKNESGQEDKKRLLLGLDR
# Chain of Cyclin-dependent kinase 5/CDK5 activator 1 (Q00535 whole entry): as the sequence (Q00535 whole entry) above
# Chain of Cyclin-dependent kinase 5/CDK5 activator 1 (Q15078 whole entry, further chain): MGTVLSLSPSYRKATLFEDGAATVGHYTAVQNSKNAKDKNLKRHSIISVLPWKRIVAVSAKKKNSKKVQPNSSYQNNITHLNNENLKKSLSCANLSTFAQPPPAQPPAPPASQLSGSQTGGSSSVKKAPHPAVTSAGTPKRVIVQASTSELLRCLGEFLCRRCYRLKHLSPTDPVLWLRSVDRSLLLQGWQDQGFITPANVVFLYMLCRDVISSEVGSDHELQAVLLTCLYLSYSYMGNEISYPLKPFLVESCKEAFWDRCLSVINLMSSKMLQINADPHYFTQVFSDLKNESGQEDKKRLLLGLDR
# Chain of CDK7/Cyclin H/MNAT1 (P51946 whole entry): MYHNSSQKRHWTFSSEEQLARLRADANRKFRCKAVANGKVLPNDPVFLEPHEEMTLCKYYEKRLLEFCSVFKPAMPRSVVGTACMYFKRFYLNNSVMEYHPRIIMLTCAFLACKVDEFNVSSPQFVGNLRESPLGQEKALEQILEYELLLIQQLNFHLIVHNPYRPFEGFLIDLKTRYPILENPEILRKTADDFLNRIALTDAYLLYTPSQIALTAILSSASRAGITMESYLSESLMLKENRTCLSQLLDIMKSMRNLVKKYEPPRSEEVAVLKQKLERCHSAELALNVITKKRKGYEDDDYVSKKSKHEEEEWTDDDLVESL
# Chain of CDK7/Cyclin H/MNAT1 (P50613 whole entry): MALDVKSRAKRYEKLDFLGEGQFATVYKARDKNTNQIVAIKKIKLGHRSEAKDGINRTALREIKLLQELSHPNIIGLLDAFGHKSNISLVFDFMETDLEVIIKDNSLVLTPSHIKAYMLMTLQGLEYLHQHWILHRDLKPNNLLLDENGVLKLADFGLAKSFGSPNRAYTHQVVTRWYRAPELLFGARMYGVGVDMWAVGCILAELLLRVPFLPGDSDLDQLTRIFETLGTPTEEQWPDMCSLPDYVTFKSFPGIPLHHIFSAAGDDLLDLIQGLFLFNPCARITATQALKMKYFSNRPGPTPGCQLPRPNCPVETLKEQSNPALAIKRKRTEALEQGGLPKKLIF
# Chain of CDK7/Cyclin H/MNAT1 (P51948 whole entry, further chain): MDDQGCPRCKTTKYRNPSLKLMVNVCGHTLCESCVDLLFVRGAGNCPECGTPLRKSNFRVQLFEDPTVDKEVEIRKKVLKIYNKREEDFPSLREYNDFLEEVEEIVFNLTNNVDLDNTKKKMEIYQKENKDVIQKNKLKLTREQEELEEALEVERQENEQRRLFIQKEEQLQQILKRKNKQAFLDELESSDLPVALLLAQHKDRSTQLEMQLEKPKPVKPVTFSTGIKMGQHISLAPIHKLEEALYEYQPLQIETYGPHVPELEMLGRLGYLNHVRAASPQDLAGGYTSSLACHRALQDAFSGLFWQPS
# Chain of CDK9/cyclin T1 (O60563 whole entry): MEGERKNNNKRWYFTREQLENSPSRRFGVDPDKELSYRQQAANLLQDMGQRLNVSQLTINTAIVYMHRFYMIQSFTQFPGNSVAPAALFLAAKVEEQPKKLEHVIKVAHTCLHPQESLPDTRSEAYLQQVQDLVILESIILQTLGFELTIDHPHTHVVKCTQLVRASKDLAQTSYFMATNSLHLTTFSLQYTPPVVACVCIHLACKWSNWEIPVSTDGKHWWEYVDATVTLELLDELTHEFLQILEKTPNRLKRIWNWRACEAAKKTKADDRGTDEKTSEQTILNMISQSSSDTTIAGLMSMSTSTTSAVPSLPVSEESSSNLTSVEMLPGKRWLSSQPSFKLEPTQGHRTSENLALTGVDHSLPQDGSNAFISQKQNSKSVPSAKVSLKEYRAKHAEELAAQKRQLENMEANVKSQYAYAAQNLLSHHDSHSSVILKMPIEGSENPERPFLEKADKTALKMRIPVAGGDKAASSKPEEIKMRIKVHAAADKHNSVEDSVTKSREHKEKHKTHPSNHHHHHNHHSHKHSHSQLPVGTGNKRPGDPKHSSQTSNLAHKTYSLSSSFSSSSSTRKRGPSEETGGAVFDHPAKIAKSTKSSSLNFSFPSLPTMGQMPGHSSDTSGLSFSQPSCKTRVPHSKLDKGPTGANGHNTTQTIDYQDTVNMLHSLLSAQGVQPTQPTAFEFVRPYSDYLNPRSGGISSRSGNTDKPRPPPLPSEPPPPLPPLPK
# Chain of CDK9/cyclin T1 (P50750 whole entry): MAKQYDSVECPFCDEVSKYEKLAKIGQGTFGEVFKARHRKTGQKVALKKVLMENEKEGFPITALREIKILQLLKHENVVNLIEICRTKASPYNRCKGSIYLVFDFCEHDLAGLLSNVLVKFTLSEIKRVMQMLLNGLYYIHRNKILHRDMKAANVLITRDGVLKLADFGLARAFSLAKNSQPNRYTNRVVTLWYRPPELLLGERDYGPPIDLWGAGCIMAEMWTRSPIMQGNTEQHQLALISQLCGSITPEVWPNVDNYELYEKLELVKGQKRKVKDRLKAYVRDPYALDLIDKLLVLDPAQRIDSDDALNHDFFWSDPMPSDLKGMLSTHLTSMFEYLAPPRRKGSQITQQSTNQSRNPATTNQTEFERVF
# Chain of Cyclin-dependent kinase 4/cyclin D1 (P11802 whole entry): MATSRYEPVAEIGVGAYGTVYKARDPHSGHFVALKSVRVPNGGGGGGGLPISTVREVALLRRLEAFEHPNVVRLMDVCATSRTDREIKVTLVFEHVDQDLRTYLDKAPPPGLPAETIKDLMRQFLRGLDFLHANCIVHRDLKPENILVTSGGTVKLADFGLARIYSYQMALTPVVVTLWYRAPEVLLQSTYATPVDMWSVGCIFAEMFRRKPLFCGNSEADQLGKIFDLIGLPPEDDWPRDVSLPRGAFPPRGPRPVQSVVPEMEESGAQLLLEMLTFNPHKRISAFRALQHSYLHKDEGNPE
# Chain of Cyclin-dependent kinase 4/cyclin D1 (P24385 whole entry, further chain): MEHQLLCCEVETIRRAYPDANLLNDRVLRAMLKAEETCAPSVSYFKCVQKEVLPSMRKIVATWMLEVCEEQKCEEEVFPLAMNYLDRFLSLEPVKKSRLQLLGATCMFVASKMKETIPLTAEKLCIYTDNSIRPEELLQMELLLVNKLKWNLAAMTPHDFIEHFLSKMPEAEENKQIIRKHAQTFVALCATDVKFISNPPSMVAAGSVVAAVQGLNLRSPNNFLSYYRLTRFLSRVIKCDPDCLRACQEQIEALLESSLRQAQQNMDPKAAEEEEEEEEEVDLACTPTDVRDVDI
# Chain of Cyclin-dependent kinase 1/cyclin B1 (P06493 whole entry): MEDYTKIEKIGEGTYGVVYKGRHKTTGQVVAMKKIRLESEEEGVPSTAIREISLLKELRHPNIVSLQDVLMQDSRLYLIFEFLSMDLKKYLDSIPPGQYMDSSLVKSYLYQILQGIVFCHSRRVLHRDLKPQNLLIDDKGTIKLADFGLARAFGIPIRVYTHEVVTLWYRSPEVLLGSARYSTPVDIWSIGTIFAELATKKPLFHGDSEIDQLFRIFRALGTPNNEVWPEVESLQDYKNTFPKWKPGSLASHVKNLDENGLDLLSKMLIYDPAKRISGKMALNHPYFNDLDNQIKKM
# Chain of Cyclin-dependent kinase 1/cyclin B1 (P14635 whole entry, further chain): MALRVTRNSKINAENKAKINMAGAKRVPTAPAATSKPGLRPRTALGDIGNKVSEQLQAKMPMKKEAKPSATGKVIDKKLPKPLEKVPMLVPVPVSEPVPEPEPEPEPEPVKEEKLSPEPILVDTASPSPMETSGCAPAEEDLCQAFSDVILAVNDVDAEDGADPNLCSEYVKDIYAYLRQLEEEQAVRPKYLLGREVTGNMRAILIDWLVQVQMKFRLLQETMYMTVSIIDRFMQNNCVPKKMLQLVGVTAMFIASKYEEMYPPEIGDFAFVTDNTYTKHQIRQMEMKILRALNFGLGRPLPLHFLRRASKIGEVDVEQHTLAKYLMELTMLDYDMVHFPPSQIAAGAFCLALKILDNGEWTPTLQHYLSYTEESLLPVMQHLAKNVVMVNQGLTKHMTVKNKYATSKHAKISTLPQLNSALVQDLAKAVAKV
# Chain of Cyclin-dependent kinase 9 (Homo sapiens) (P50750 whole entry): as the sequence (P50750 whole entry) above
# Chain of Cyclin-dependent kinase 7 (Homo sapiens) (P50613 whole entry): as the sequence (P50613 whole entry) above
Compound,IC50 (CDK7/Cyclin H/MNAT1) [nM],IC50 [3] [nM],IC50 (CDK9/cyclin T1) [nM],IC50 [4] [nM],IC50 [5] [nM],IC50 (CDK2/Cyclin A2) [nM],IC50 [8] [nM],further results
O=C1NC(=O)c2c1c1c3ccccc3[nH]c1c1[nH]c3ccccc3c21 [STAUROSPORINE AGLYCON],> 20000,199,> 20000,964,936,135,,Activity (HCT-116 [1]): Active; Activity (HCT-116 [2]): >=60%
Cc1ccc(NC2=CC(=O)c3sc(C)nc3C2=O)cc1,> 20000,9500,> 20000,> 20000,> 20000,> 20000,> 20000,IC50 [6]: 500 nM; Activity (HCT-116 [7]): 15%
O=C1NC(=O)c2c1c1c3ccccc3[nH]c1c1[nH]c3cc(Br)ccc3c21,> 20000,91,4000,1500,154,185,229,Activity (HCT-116 [9]): <=30%; Activity (HCT-116 [10]): Active
CCN(CC)C(=O)c1ccc(Nc2nc(OCC3CCCCC3)c3nc[nH]c3n2)cc1,2300,940,5100,5800,8800,407000,1100,inhibition [11]: 44%; IC50 (Aurora kinase B [12]): 35 nM; Activity (HCT-116 [13]): Active; Ratio IC50 (Homo sapiens [14]): 6 to 10; IC50 (Aurora kinase A): 67 nM; Activity (HCT-116 [15]): >=60%; Ratio IC50 (Homo sapiens [16]): 6 to 10; inhibition (Aurora kinase B [17]): Dose-dependent effect; IC50 [18]: 400 nM
Nc1nc(Nc2ccc(S(N)(=O)=O)cc2)nn1C(=S)Nc1c(F)cccc1F,66,59,30,2,0.2,,,Activity (HCT-116 [19]): Active; inhibition [20]: inactive; inhibition [21]: Active; inhibition [22]: inactive; Activity (HCT-116 [23]): >=60%
CCN1CCN(Cc2ccc(Nc3ncc(F)c(-c4cc(F)c5nc(C)n(C(C)C)c5c4)n3)nc2)CC1 [ABEMACICLIB],,,,,,,,Activity (HCT-116 [24]): Active; Activity (HCT-116 [25]): <=30%
CCCCOc1c(C(=O)c2c(F)cc(C)cc2F)c[nH]c2nncc1-2,1600,222,1800,14,258,71,6,inhibition [26]: Active; Activity (HCT-116 [27]): 30 - 60%; Activity (HCT-116 [28]): Active
CC[C@H](CO)Nc1nc(Nc2cccc(-c3ccccn3)c2)c2ncn(C(C)C)c2n1,822,> 20000,8000,3700,215,290,93,Activity (HCT-116 [29]): <=30%
OCCCNc1cc(-c2ccnc(Nc3cccc(Cl)c3)n2)ccn1,200,216,,26,10,4,3,inhibition [30]: inactive; inhibition [31]: inactive; Activity (HCT-116 [32]): Active; inhibition [33]: Active; Activity (HCT-116 [34]): <=30%
